Consider 34 compounds from ChEMBL document CHEMBL1146045, “Design of novel, potent, and selective human beta-tryptase inhibitors based on alpha-keto-[1,2,4]-oxadiazoles” (Bioorg Med Chem Lett, 2006).

In brackets after ≈: the same amount, converted by molar mass.

The target in data set [1] is Trypsin (Homo sapiens, UniProt P07477+P07478+P35030). Kind of data set: Inhibition of human trypsin. Format: protein assay.
Data set [2] concerns the target Tryptase beta-1 (Homo sapiens, UniProt Q15661). Description: Inhibition of human beta tryptase.
Data set [3] in a line: Solubility at pH 7.4. The data set is classed as physicochemical. The following applies: buffer.
Data set [4] concerns the target T1, hERG (KCNH2) (Homo sapiens, UniProt Q12809). Description: Inhibition of hERG at 1 uM. Format: toxicity. (In general: The hERG channel carries a current that helps repolarise heart muscle cells.)
Data set [5] in a line: Stability in human liver microsome after 1 hr. The note with it: liver microsomes, read-out: Stability. Format: ADME. A general note: Liver microsomes are a subcellular fraction often used to study metabolism.
Data set [6] has as its target T1, hERG (KCNH2). Kind of data set: Inhibition of hERG at 10 uM. The data set is classed as toxicity.
Data set [7] deals with Prothrombin (Homo sapiens, UniProt P00734). Description: Inhibition of thrombin.
Data set [8] has as its target T2, Coagulation factor VII (Homo sapiens, UniProt P08709).
T2 sequence (P08709 whole entry): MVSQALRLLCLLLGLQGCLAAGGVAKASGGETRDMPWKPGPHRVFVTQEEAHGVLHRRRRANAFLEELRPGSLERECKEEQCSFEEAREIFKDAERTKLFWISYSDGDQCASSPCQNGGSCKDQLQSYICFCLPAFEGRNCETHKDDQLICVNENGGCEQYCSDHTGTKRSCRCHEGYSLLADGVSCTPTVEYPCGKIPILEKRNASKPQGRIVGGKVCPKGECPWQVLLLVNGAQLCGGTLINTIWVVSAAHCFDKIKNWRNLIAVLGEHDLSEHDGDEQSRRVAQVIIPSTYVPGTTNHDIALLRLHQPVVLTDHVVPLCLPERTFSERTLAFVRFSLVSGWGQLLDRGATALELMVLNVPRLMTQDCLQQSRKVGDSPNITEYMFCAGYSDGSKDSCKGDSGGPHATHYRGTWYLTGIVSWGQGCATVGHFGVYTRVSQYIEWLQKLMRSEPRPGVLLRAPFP
Description: Inhibition of F7a.

The target in data set [9] is Coagulation factor X (Homo sapiens, UniProt P00742). Description: Inhibition of F10a.
Coagulation factor X, sequence (P00742 41-179 limits assumed): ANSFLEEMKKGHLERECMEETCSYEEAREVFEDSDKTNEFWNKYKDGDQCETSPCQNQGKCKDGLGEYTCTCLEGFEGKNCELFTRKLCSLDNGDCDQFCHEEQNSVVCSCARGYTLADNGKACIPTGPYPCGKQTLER
Coagulation factor X, sequence (P00742 235-488 limits assumed): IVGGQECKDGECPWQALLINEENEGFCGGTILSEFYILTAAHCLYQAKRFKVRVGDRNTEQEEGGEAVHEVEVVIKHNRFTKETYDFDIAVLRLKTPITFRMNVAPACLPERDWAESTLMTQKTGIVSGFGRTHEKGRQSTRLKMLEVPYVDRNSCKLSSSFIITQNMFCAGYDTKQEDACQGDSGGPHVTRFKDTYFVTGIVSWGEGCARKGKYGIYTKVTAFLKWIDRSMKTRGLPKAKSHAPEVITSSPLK

Tryptase beta-1, sequence (Q15661 whole entry): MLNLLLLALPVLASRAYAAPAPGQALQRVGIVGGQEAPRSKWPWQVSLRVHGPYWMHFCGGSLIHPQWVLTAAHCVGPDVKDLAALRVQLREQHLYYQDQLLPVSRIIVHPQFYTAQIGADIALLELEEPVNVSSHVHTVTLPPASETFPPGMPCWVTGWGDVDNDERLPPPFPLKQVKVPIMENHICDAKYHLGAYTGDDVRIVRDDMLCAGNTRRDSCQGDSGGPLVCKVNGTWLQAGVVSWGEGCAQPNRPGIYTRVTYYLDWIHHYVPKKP
T1 sequence (Q12809 whole entry): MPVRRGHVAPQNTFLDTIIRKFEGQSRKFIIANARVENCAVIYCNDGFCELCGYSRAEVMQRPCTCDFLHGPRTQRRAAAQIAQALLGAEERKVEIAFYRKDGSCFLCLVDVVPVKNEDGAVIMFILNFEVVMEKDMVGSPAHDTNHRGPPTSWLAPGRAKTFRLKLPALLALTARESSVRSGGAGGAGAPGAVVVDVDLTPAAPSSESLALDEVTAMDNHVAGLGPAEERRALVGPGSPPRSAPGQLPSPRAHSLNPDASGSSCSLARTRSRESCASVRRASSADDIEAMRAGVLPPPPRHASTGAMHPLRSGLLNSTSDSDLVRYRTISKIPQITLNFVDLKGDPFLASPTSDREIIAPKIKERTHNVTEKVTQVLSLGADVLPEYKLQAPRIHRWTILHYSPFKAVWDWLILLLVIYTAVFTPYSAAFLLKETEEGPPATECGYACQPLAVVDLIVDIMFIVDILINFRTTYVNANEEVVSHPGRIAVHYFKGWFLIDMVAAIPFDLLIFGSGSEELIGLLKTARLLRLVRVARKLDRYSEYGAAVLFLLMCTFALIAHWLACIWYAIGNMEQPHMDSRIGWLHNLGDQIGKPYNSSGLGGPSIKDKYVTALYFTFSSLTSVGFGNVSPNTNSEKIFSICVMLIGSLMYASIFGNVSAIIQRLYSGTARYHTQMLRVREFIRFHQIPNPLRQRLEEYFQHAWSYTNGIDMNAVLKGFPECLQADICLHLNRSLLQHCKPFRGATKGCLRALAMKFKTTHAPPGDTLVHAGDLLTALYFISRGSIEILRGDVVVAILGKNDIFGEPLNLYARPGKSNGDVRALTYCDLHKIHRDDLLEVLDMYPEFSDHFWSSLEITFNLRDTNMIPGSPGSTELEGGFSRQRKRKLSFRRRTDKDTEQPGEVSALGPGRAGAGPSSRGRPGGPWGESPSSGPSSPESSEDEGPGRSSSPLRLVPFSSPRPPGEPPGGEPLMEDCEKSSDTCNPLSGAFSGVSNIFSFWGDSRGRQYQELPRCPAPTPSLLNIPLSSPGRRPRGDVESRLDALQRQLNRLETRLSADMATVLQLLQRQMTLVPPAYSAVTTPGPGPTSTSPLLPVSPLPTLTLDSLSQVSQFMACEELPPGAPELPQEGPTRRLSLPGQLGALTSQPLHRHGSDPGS

Turning to `NCCCC[C@H](NC(=O)OCc1ccccc1)C(=O)c1noc(Cc2ccc(C(=O)NCCc3cccc(C(F)(F)F)c3)cc2)n1`, the results for the Ki in [1] and in data set [2] were 30 nM and 8.2 nM, respectively. This compound registered a solubility in data set [3] of 284 µM (≈ 181 µg/mL).
Consider `NCCCC[C@H](NC(=O)OCc1ccccc1)C(=O)c1noc(Cc2ccc(OCCc3ccccc3)cc2)n1`, for which, in data set [4], testing at 1 µM gave an inhibition of 40%. In data set [3], this compound showed a solubility of 23 µM (≈ 12.5 µg/mL).
As to `NCCCC[C@H](NC(=O)OCc1ccccc1)C(=O)c1noc(Cc2ccc(C(=O)NCCc3cc(F)cc(F)c3)cc2)n1`, the Ki in data set [1] was 18 nM; in data set [2], 3.5 nM. This compound had a solubility in data set [3] of 333 µM (≈ 202 µg/mL).
For `NCCCC[C@H](NC(=O)OCc1ccccc1)C(=O)c1noc(Cc2ccc(C(=O)N3CCN(Cc4ccccc4F)CC3)cc2)n1`, the values for the Ki in data set [1] and in data set [2] were 3.7 nM and 140 nM, respectively. The compound further registered a solubility in data set [3] of 472 µM (≈ 303 µg/mL).
On to `CCOC(=O)N[C@@H](CCCCN)C(=O)c1noc(Cc2ccc(C(=O)NCCc3cccc(Cl)c3)cc2)n1`, for which the Ki in [1] turned out to be 180 nM; in data set [2], 1.9 nM. In data set [3], this compound came in with a solubility of 471 µM (≈ 255 µg/mL).
`NCCCC[C@H](NC(=O)c1ccc2c(c1)OCO2)C(=O)c1noc(Cc2ccc(C(=O)NCCc3cccc(Cl)c3)cc2)n1`: the Ki in [1] is 330 nM; in [2], 2.1 nM. Moreover, in data set [3], the solubility was found to be 337 µM (≈ 208 µg/mL).
In the case of `NCCCC[C@H](NC(=O)OCc1ccccc1)C(=O)c1noc(CN2CCN(C(=O)OCc3ccccc3)CC2)n1`, the inhibition constant Ki in data set [1] is 42 nM; in [2] it was 470 nM.
With `NCCCC[C@H](NC(=O)OCc1ccccc1)C(=O)c1noc(Cc2ccc(C(=O)NCc3ccccc3)cc2)n1`, the Ki was 23 nM in data set [1] and 37 nM in [2]. The compound further displayed a solubility in data set [3] of 459 µM (≈ 255 µg/mL).
Taken in the same sequence, the figures for `CC(C)(C)C(=O)N[C@@H](CCCCN)C(=O)c1noc(Cc2ccc(C(=O)NCCc3cccc(Cl)c3)cc2)n1` were 470 nM, 2 nM and 30 µM (≈ 16.6 µg/mL).
For the compound `NCCCC[C@H](NC(=O)OCc1ccccc1)C(=O)c1noc(Cc2ccc(C(=O)NCCc3ccc(C(F)(F)F)cc3)cc2)n1`, the values for the inhibitory constant (Ki) in data set [1] and in data set [2] were 27 nM and 220 nM, respectively. The compound also showed a solubility in data set [3] of 227 µM (≈ 145 µg/mL).
In the case of `NCCCC[C@H](NC(=O)OCc1ccccc1)C(=O)c1noc(CN2CCN(C(=O)CCCc3ccccc3)CC2)n1`, the Ki in data set [1] is 22 nM; in [2], 34 nM. Moreover, the remaining at 1 h in [5] was 2%. Besides, the inhibition at 10 µM in data set [6] was determined as 2.3%. The same compound came in with a solubility in [3] of more than 500 µM.
`CCOC(=O)N[C@@H](CCCCN)C(=O)c1noc(Cc2ccc(C(=O)NC3Cc4ccccc4C3)cc2)n1`: the inhibitory constant (Ki) in [1] was 170 nM; in data set [7], 60000 nM; in data set [8], more than 150000 nM; in data set [9] it was 140000 nM. Further, in data set [5], the remaining at 1 h turned out to be 64%.
Consider `NCCCC[C@H](NC(=O)OCc1ccccc1)C(=O)c1noc(Cc2ccc(C(=O)NCCc3ccc(Cl)c(Cl)c3)cc2)n1`, for which the inhibition constant Ki in data set [1] came to 31 nM; in data set [2], 16 nM.
Regarding `NCCCC[C@H](NC(=O)OCc1ccccc1)C(=O)c1noc(Cc2ccc(C(=O)NCCOc3ccc(F)cc3)cc2)n1`, the inhibition constant (Ki) worked out at 11 nM in data set [1] and 2.9 nM in [2]. The compound also came in with a solubility in data set [3] of 299 µM (≈ 180 µg/mL).
Turning to `NCCCC[C@H](NC(=O)OCc1ccccc1)C(=O)c1noc(Cc2ccc(C(=O)NCCCCc3ccccc3)cc2)n1`, the inhibitory constant (Ki) turned out to be 14 nM in data set [1] and 60 nM in [2]. The compound also showed a solubility in [3] of 188 µM (≈ 112 µg/mL).
`NCCCC[C@H](NC(=O)OCc1ccccc1)C(=O)c1noc(CN2CCN(CCCc3ccccc3)CC2)n1` showed an inhibition constant Ki in data set [2] of 11 nM. This compound also displayed a solubility in data set [3] of 329 µM (≈ 181 µg/mL).
With `NCCCC[C@H](NC(=O)OCc1ccccc1)C(=O)c1noc(Cc2ccc(C(=O)NCc3ccc4ccccc4c3)cc2)n1`, the Ki in [1] was 15 nM; in data set [2] it was 11 nM. The same compound came in with a solubility in data set [3] of 100 µM (≈ 60.6 µg/mL).
In the case of `COc1ccc(Cc2nc(C(=O)[C@H](CCCCN)NC(=O)OCc3ccccc3)no2)cc1`, the Ki in data set [1] came to 22 nM; in data set [2] it was 770 nM. Further, the solubility in [3] was 348 µM (≈ 157 µg/mL).
Take `NCCCC[C@H](NC(=O)OCc1ccccc1)C(=O)c1noc(CN2CCN(C(=O)CCc3ccccc3)CC2)n1`: the Ki was found to be 33 nM in data set [1] and 230 nM in data set [2].
`NCCCC[C@H](NC(=O)OCc1ccccc1)C(=O)c1noc(Cc2ccc(C(=O)NCCCc3ccccc3)cc2)n1`: the Ki in [1] was determined as 19 nM; in data set [2], 3 nM. In data set [3], this compound displayed a solubility of 370 µM (≈ 216 µg/mL).
With `NCCCC[C@H](NC(=O)OCc1ccccc1)C(=O)c1noc(Cc2ccc(C(=O)NCCc3cccc(Cl)c3)cc2)n1`, the figures for the Ki in [1] and in data set [2] were 23 nM and 1.8 nM, respectively. Besides, the solubility in data set [3] turned out to be 109 µM (≈ 65.8 µg/mL).
With `NCCCC[C@H](NC(=O)OCc1ccccc1)C(=O)c1noc(CN2CCN(CCCCc3ccccc3)CC2)n1`, the inhibition constant (Ki) in data set [1] was determined as 12 nM; in data set [2], 5.8 nM. In [5], the remaining at 1 h turned out to be 22%. Further, in data set [3], the solubility is 466 µM (≈ 262 µg/mL).
For the compound `NCCCC[C@H](NC(=O)c1cc(F)cc(F)c1)C(=O)c1noc(Cc2ccc(C(=O)NCCc3cccc(Cl)c3)cc2)n1`, the inhibitory constant (Ki) in data set [1] is 410 nM; in [2], 1.5 nM. Besides, in data set [3], the solubility worked out at 313 µM (≈ 191 µg/mL).
As for `NCCCC[C@H](NC(=O)OCc1ccccc1)C(=O)c1noc(Cc2ccc(C(=O)NC/C=C/c3ccccc3)cc2)n1`, the Ki in data set [1] worked out at 18 nM; in data set [2], 3.6 nM. Besides, in [3], the solubility came out at 226 µM (≈ 131 µg/mL).
For `NCCCC[C@H](NC(=O)OCc1ccccc1)C(=O)c1noc(Cc2ccc(C(=O)NCc3cccc4ccccc34)cc2)n1`, the Ki in data set [1] was determined as 26 nM; in data set [2] it was 13 nM. Moreover, the concentration in solution in data set [3] (solubility) came to 77.2 µM (≈ 46.8 µg/mL).
For the compound `CC(C)CCNC(=O)c1ccc(Cc2nc(C(=O)[C@H](CCCCN)NC(=O)OCc3ccccc3)no2)cc1`, the inhibitory constant (Ki) worked out at 29 nM in [1] and 9.9 nM in data set [2]. Also, in data set [4], the inhibition at 1 µM was 0%. In [3], this compound showed a solubility of 364 µM (≈ 195 µg/mL).
Regarding `NCCCC[C@H](NC(=O)c1ccc(F)c(F)c1)C(=O)c1noc(Cc2ccc(C(=O)NCCc3cccc(Cl)c3)cc2)n1`, the inhibition constant Ki came out at 440 nM in data set [1] and 1.7 nM in data set [2]. Also, the concentration in solution in data set [3] (solubility) was 349 µM (≈ 213 µg/mL).
With `NCCCC[C@H](NC(=O)c1ccc(F)cc1)C(=O)c1noc(Cc2ccc(C(=O)NCCc3cccc(Cl)c3)cc2)n1`, the Ki in data set [1] came out at 240 nM; in [2], 1.8 nM. Besides, the solubility in [3] is 390 µM (≈ 231 µg/mL).
Regarding `NCCCC[C@H](NC(=O)OCc1ccccc1)C(=O)c1noc(Cc2ccc(C(=O)NCCc3cccs3)cc2)n1`, the figures for the Ki in [1] and in data set [2] were 13 nM and 2.4 nM, respectively. Besides, the inhibition at 10 µM in data set [6] is 7.2%. Besides, the solubility in data set [3] amounted to 484 µM (≈ 279 µg/mL).
Take `NCCCC[C@H](NC(=O)c1ccc(Cl)cc1)C(=O)c1noc(Cc2ccc(C(=O)NCCc3cccc(Cl)c3)cc2)n1`: the values for the Ki in data set [1] and in data set [2] were 330 nM and 1.9 nM, respectively.
`NCCCC[C@H](NC(=O)c1cccc(F)c1)C(=O)c1noc(Cc2ccc(C(=O)NCCc3cccc(Cl)c3)cc2)n1`: the Ki was found to be 280 nM in data set [1] and 1.7 nM in [2]. Moreover, the solubility in data set [3] turned out to be 422 µM (≈ 250 µg/mL).
Turning to `NCCCC[C@H](NC(=O)OCc1ccccc1)C(=O)c1noc(Cc2ccc(C(=O)NCCc3ccccc3)cc2)n1`, the Ki in data set [1] came to 20 nM; in data set [2] it was 3.2 nM. In addition, the solubility in data set [3] was 440 µM (≈ 251 µg/mL).
Taken in the same sequence, the figures for `Cc1ccc(CNC(=O)c2ccc(Cc3nc(C(=O)[C@H](CCCCN)NC(=O)OCc4ccccc4)no3)cc2)cc1C` were 34 nM, 39 nM and 245 µM (≈ 143 µg/mL).
In the case of `NCCCC[C@H](NC(=O)OCc1ccccc1)C(=O)c1noc(Cc2ccc(C(=O)NC3Cc4ccccc4C3)cc2)n1`, the Ki in data set [1] was 21 nM; in data set [7] it was 48000 nM; in [2], 3.7 nM; in data set [8] it was 140000 nM; in data set [9], 100000 nM. The solubility in [3] is 206 µM (≈ 120 µg/mL).

Broadly, the Ki is a dissociation constant, usually derived from enzyme kinetics or from competition with a known ligand. Read a low Ki as higher affinity. The term solubility denotes how much of the substance goes into solution per volume. What is called inhibition is the drop in the measured response relative to a control, in per cent. A low value points to a weak effect.
